In patent publication US10759826B2, “15β-substituted estrone derivatives as selective inhibitors of 17β-hydroxysteroid-dehydrogenases, method of preparation and use thereof” (USTAV ORGANICKE CHEMIE A BIOCHEMIE AV CR, V.V.I., priority 2016, dated 2020):
Several values for one entry are separate records, joined by “and”; a condition that tells them apart may be missing. Equal values may be shown once. Entries after “also recorded” stand apart in the source; their conditions may differ.

Experiments:
T47D cells = experiment: E1 induced proliferation of T47D cells, 7 days, cell count; format: cell-based, human; conditions: FIG. 1
Source text: Two days prior to testing of compounds, growth medium was changed to medium without phenol red, supplemented with 2 mmol^·l^−1 Glutamax and 4% FBS depleted of lipophilic components (including the endogenous estrogenic substances) (Hyclone, GE Healthcare Life Sciences, USA). Two days after the medium replacement, the cells were harvested, counted and resuspended in a medium. Cells were dispensed with liquid dispenser Multidrop (Thermo Fisher Scientific, Waltham, USA), to the cell culture treated, 12-well plates (Corning Inc., NY, USA) at 100 000 cells/well in 1 mL of total media volume. Compounds diluted in the medium were added 24 h later and cells were incubated for 7 more days with or without 1 μmol^·l^−1 E1. Growth medium was changed during the experiment on day 3, and freshly diluted compounds were added to cells again. After 7 days of cell cultivation with compounds, cells were harvested and counted. Cell number was normalized and 100% was attributed to cells cultivated in the presence of 1 μmol^·l^−1 E1 and 0% to the cells cultivated without any added compound.

CEM = experiment: MTT cytotoxicity assay, CEM; format: cell-based; conditions: Homo sapiens, CCRF-CEM
Source text: (§1) Compounds 5, 6, 7, 9, 14 and 15 were used for evaluation of antitumor activity. MTT cytotoxicity assay was used in vitro on cell lines derived from normal tissues and from tumors. Specifically, these were the K562 line (human myeloid leukemia), K562-Tax (human myeloid leukemia resistant to taxol and overexpressing PgP protein for multidrug resistance), CEM (T-lymphoblastic leukemia), CEM-DNR bulk (T-lymphoblastic leukemia resistant doxorubicin, lacking the expression of the target gene for inhibitors of topoisomerase II alpha), A549 line (human lung adenocarcinoma), HCT116p53 wt (human colon cancer), HCT116p53−/− (human colon cancer, mutant p53), U2OS line of human osteosarcoma and two fibroblast lines MRC5 and BJ as examples of non-tumor cells. Expression characteristics, profiles of susceptibility to classical antitumor drugs and methodology of the MTT cytotoxicity assay were repeatedly published (e.g. Noskova et al. Neoplasma 2002, 49, 418; S̆arek et. al. J. Med. Chem. 2003, 46, 25, 5402).

CEM-DNR-bulk = experiment: MTT cytotoxicity assay, CEM-DNR-bulk; format: cell-based
Source text: as §1

K562 = experiment: MTT cytotoxicity assay, K562; format: cell-based; conditions: Homo sapiens
Source text: as §1

K562-Tax = experiment: MTT cytotoxicity assay, K562-Tax; format: cell-based; conditions: Homo sapiens
Source text: as §1

A549 = experiment: MTT cytotoxicity assay, A549; format: cell-based; conditions: Homo sapiens
Source text: as §1

HCT116p53 wt = experiment: MTT cytotoxicity assay, HCT116p53 wt; format: cell-based; conditions: Homo sapiens
Source text: as §1

HCT116p53-/- = experiment: MTT cytotoxicity assay, HCT116p53-/-; format: cell-based; conditions: Homo sapiens
Source text: as §1

U2OS = experiment: MTT cytotoxicity assay, U2OS; format: cell-based; conditions: Homo sapiens
Source text: as §1

BJ = experiment: MTT cytotoxicity assay, BJ fibroblasts; format: cell-based; conditions: Homo sapiens, non-tumor fibroblasts
Source text: as §1

MRCS = experiment: MTT cytotoxicity assay, MRC5 fibroblasts; format: cell-based; conditions: Homo sapiens, Fibroblast, non-tumor fibroblasts
Source text: as §1

17βHSD = experiment: Inhibition of 17βHSD in vivo, E2 in plasma of mice; parameters: species or system mice (NMRI); conditions: 20 mg/kg daily, orally; for E2 in plasma, individual mice: 20 mg/kg
embryo = experiment: Toxicity in the CAM model, dead and surviving embryos; format: in vivo, White Leghorn eggs; conditions: 50 μmol·l^−1, after 6 days of treatment, FIG. 2C
Experimental: The toxicity after 6 days of the treatment was characterized by the number of dead embryos, eventual visible macroscopic abnormalities were evaluated as well.

human 17βHSD1 [1] = target: T1, human 17βHSD1 (Homo sapiens, UniProt P14061); experiment: 17βHSD inhibition in CHO cells transfected with human 17βHSD1, E1 in supernatant; format: cell-based; parameters: expressed in transfected cells; conditions: 10 μmol·l^−1
T1 sequence (P14061 1-328): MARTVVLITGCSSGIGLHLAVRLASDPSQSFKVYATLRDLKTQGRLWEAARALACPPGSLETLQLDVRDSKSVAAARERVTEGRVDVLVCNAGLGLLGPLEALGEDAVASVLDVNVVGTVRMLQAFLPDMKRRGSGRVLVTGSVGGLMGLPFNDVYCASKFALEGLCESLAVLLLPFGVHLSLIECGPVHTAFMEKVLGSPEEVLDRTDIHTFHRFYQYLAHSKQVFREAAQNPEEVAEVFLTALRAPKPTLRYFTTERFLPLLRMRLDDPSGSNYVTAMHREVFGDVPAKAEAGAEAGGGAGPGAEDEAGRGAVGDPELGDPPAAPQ
Experimental: (§2) For this experiment, non-cytotoxic concentrations of estrone derivative (10 μmol·l^−1) were used. E1 levels were determined by an immuno-enzymatic assay.

human 17βHSD1 [2] = target: T1, human 17βHSD1; experiment: 17βHSD inhibition in MCF-7 cells transfected with human 17βHSD1, E1 in supernatant; format: cell-based; parameters: expressed in transfected cells; host or cells: MCF-7; conditions: 10 μmol·l^−1
Experimental: as §2

## CCOc1ccc(CC[C@@H]2CC(=O)[C@@]3(C)CC[C@@H]4c5ccc(O)cc5CC[C@H]4[C@H]23)cc1 [Compound 12, 15β-(4-Ethoxyphenethyl)-3-hydroxy-estra-1,3,5(10)-trien-17-one]
other
  melting point: 173 °C

## COc1ccc(CC[C@@H]2CC(=O)[C@@]3(C)CC[C@@H]4c5ccc(O)cc5CC[C@H]4[C@H]23)cc1 [Compound 9, 3-Hydroxy-15β-(4-methoxyphenethyl)-estra-1,3,5 (10)-trien-17-one]
T47D cells; 1 μmol·l^−1, without E1, 7 days
  effect on T47D proliferation, compound alone: weakly pro-proliferative
T47D cells; incubated together with 0.1 nmol·l^−1 E1, 7 days
  effect on E1-induced proliferation of T47D cells: reverses the pro-proliferative activity of E1; also recorded: blocks E1-induced proliferation
CEM
  IC50: 21.4 µM
CEM-DNR-bulk
  IC50: 22.1 µM
K562
  IC50: 27.7 µM
K562-Tax
  IC50: 9.12 µM
A549
  IC50: 41 µM
HCT116p53 wt
  IC50: 29.4 µM
HCT116p53-/-
  IC50: 35.7 µM
U2OS
  IC50: 45.3 µM
BJ
  IC50: > 50 µM
MRCS
  IC50: > 50 µM
17βHSD; 7 days
  E2 in plasma, mean value ± σ: 5693 ± 1034 pg/mL
  E2 in plasma, individual mice: 4927 pg/mL and 4357 pg/mL and 6020 pg/mL and 7379 pg/mL and 5857 pg/mL and 5617 pg/mL
17βHSD; 14 days
  E2 in plasma, mean value ± σ: 3874 ± 1253 pg/mL
  E2 in plasma, individual mice: 6020 pg/mL and 2668 pg/mL and 2657 pg/mL and 3566 pg/mL and 4312 pg/mL and 4025 pg/mL
embryo
  toxicity, dead/alive eggs: No specific toxicity
Human 17βHSD1 [1]; 8 hr.
  E1 in supernatant, CHO: 1171 pg/mL
Human 17βHSD1 [1]; 24 hr.
  E1 in supernatant, CHO: 739 pg/mL
Human 17βHSD1 [2]; 8 hr.
  E1 in supernatant, MCF-7: 1300 pg/mL
Human 17βHSD1 [2]; 24 hr.
  E1 in supernatant, MCF-7: 1182 pg/mL
